Assay results from patent publication US10208020B2, “Substituted amino triazoles useful as human chitinase inhibitors” (OncoArendi Therapeutics S.A., priority 2015, dated 2019).

Legend:
recombinant human CHIT1 = recombinant human CHIT1 (Homo sapiens (Human), UniProt Q13231); assay: Human CHIT1 activity assay; assay type: biochemical; conditions: citrate buffer pH 5.2, 37° C., 60 minutes; 4-methylumbelliferyl β-D-N,N′,N″-triacetylchitotriose substrate; read-out: Activity on hCHIT1, IC50
recombinant human AMCase = recombinant human AMCase (Homo sapiens (Human), UniProt Q9BZP6); assay: Human AMCase activity assay; assay type: biochemical; conditions: citrate buffer pH 5.2, 37° C., 60 minutes; 4-methylumbelliferyl B-D-N,N′-diacetylchitobioside substrate; read-out: Activity on hAMCase, IC50
Chain of recombinant human AMCase (Q9BZP6 22-476): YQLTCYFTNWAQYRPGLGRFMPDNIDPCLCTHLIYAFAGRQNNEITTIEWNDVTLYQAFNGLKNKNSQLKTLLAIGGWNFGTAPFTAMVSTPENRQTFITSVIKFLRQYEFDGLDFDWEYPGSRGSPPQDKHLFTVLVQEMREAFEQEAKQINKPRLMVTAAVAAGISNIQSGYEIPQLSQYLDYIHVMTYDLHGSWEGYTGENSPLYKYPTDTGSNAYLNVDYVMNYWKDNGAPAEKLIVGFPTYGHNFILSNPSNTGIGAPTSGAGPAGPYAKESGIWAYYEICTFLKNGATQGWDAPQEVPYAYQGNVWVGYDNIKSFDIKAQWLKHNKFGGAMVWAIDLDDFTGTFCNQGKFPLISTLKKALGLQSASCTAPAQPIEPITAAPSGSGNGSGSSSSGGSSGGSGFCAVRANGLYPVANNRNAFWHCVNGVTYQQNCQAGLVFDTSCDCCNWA

Chain of recombinant human CHIT1 (Q13231 22-466): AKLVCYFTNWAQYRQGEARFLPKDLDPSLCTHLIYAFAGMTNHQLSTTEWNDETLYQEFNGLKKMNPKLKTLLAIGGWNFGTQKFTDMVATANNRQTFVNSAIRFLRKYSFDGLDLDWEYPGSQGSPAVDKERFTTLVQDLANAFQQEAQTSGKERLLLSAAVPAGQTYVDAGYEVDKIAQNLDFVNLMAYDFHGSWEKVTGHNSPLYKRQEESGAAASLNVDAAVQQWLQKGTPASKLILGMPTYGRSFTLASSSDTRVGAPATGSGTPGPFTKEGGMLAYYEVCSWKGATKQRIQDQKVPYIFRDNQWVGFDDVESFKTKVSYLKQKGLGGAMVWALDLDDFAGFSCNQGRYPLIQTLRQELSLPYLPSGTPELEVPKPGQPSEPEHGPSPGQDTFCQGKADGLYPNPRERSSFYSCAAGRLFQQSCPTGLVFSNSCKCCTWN

Row | IC50 (recombinant human CHIT1) [nM] | IC50 (recombinant human AMCase) [nM] | Structure (SMILES)
1 | < 100 | – | Nc1nnc(N2CCC(N3CCOC[C@@H]3Cc3ccc(Cl)cc3)CC2)[nH]1 [Example 1, (S)-5-(4-(3-(4-chlorobenzyl)morpholino)piperidin-1-yl)-4H-1,2,4-triazol-3-amine]
2 | < 100 | – | Nc1nnc(N2CCC(N3CCCC[C@@H]3Cc3ccc(Cl)cc3)CC2)[nH]1 [Example 15, (R)-5-(2-(4-chlorobenzyl)-[1,4′-bipiperidin]-1′-yl)-4H-1,2,4-triazol-3-amine]
3 | 1000 to 10000 | – | CC1(C(=O)O)CC[C@H](Cc2ccc(Cl)cc2)N(C2CCN(c3nnc(N)[nH]3)CC2)C1 (stereo partly drawn) [Example 18, (6R)-1′-(5-amino-4H-1,2,4-triazol-3-yl)-6-(4-chlorobenzyl)-3-methyl-[1,4′-bipiperidine]-3-carboxylic acid]
4 | – | < 100 | CCOC[C@H]1CN(C2CCN(c3nnc(N)[nH]3)CC2)[C@@H](Cc2ccc(Cl)cc2)CO1 [Example 11, 5-(4-((2R,5S)-5-(4-chlorobenzyl)-2-(ethoxymethyl)morpholino)piperidin-1-yl)-4H-1,2,4-triazol-3-amine]
5 | 10000 to 100000 | – | C[C@H]1CN(C2CCN(c3nnc(N)[nH]3)CC2)[C@@H](Cc2ccc(Cl)cc2)C(C)(C)O1 [Example 53, 5-(4-((3S,6S)-3-(4-chlorobenzyl)-2,2,6-trimethylmorpholino)piperidin-1-yl)-4H-1,2,4-triazol-3-amine]
6 | 10000 to 100000 | – | COC(=O)N1C[C@H](Cc2ccc(Cl)cc2)N(C2CCN(c3nnc(N)[nH]3)CC2)C[C@@H]1C [Example 39, methyl (2S,5S)-4-(1-(5-amino-4H-1,2,4-triazol-3-yl)piperidin-4-yl)-5-(4-chlorobenzyl)-2-methylpiperazine-1-carboxylate]
7 | 100 to 1000 | < 100 | C[C@H]1CN(C2CCN(c3nnc(N)[nH]3)CC2)[C@@H](Cc2ccc(Cl)cc2)CN1CC(=O)O [Example 41, 2-((2S,5S)-4-(1-(5-amino-4H-1,2,4-triazol-3-yl)piperidin-4-yl)-5-(4-chlorobenzyl)-2-methylpiperazin-1-yl)acetic acid]
8 | 100 to 1000 | – | Nc1nnc(N2CCC(N3CC(C(=O)O)CC[C@@H]3Cc3ccc(Cl)cc3)CC2)[nH]1 (stereo partly drawn) [Example 17, (6R)-1′-(5-amino-4H-1,2,4-triazol-3-yl)-6-(4-chlorobenzyl)-[1,4′-bipiperidine]-3-carboxylic acid]
9 | < 100 | – | CCOC(=O)C1CC[C@H](Cc2ccc(Cl)cc2)N(C2CCN(c3nnc(N)[nH]3)CC2)C1 (stereo partly drawn) [Example 16, ethyl (6R)-1′-(5-amino-4H-1,2,4-triazol-3-yl)-6-(4-chlorobenzyl)-[1,4′-bipiperidine]-3-carboxylate]
10 | 100 to 1000 | < 100 | COC(=O)CN1C[C@H](Cc2ccc(Cl)cc2)N(C2CCN(c3nnc(N)[nH]3)CC2)C[C@@H]1C [Example 40, methyl 2-((2S,5S)-4-(1-(5-amino-4H-1,2,4-triazol-3-yl)piperidin-4-yl)-5-(4-chlorobenzyl)-2-methylpiperazin-1-yl)acetate]
11 | 10000 to 100000 | – | Cc1ccc(S(=O)(=O)N2CCN(C3CCN(c4nnc(N)[nH]4)CC3)[C@@H](Cc3ccc(Cl)cc3)C2)cc1 [Example 35, (S)-5-(4-(2-(4-chlorobenzyl)-4-tosylpiperazin-1-yl)piperidin-1-yl)-4H-1,2,4-triazol-3-amine]
12 | 10000 to 100000 | – | C[C@H]1CN(C2CCN(c3nnc(N)[nH]3)CC2)[C@@H](Cc2ccc(Cl)cc2)CN1S(C)(=O)=O [Example 37, 5-(4-((2S,5S)-2-(4-chlorobenzyl)-5-methyl-4-(methylsulfonyl)piperazin-1-yl)piperidin-1-yl)-4H-1,2,4-triazol-3-amine]
13 | < 100 | – | Nc1nnc(N2CCC(N3CCOC[C@@H]3Cc3ccc(Br)cc3)CC2)[nH]1 [Example 3, (S)-5-(4-(3-(4-bromobenzyl)morpholino)piperidin-1-yl)-4H-1,2,4-triazol-3-amine]
14 | < 100 | < 100 | COC(C)(C)[C@H]1CN(C2CCN(c3nnc(N)[nH]3)CC2)[C@@H](Cc2ccc(Cl)cc2)CO1 [Example 14, 5-(4-((2R,5S)-5-(4-chlorobenzyl)-2-(2-methoxypropan-2-yl)morpholino)piperidin-1-yl)-4H-1,2,4-triazol-3-amine]

Row | Structure (SMILES) | IC50 (recombinant human CHIT1) [nM] | IC50 (recombinant human AMCase) [nM]
15 | Nc1nnc(N2CCC(N3C[C@@H]4CCCN4C[C@@H]3Cc3ccc(Cl)cc3)CC2)[nH]1 [Example 49, 5-(4-((3S,8aS)-3-(4-chlorobenzyl)hexahydropyrrolo[1,2-a]pyrazin-2(1H)-yl)piperidin-1-yl)-4H-1,2,4-triazol-3-amine] | 1000 to 10000 | < 100
